# Earlier results in patent US20250214928A1 (priority 2023, published 2025).
# Columns and labels:
# [1] = tested on: kainic acid-induced status epilepticus model; details: mouse study, ref. [5]
# [2] = tested on: tumor-specific antigens (CEA, CA 19/9, CA 125, prostate-specific antigen); details: meta-analysis of phase I/II trials, over 400 patients, dose-dependent, ref. [9]
smiles,measurement,setting,value
"CNC(=O)[C@@H](NC(=O)[C@H](CC(C)C)[C@H](O)C(=O)NO)C(C)(C)C [marimastat, (2R,3S)-N-1-((S)-3,3-dimethyl-1-methylamino-1-oxobutan-2-yl)-N-4,3-dihydroxy-2-isobutylsuccinamide]",duration of seizures,[1],reduced
same,number of seizures,[1],reduced
same,growth indicators of tumor-specific antigens (all four),[2],significantly reduced
